Reference: ChEMBL document CHEMBL1955725, “Structure-guided lead optimization of triazolopyrimidine-ring substituents identifies potent Plasmodium falciparum dihydroorotate dehydrogenase inhibitors with clinical candidate potential” (J Med Chem, 2011)
≈ marks a conversion by molar mass, not a printed value.

Columns and labels:
Plasma = experiment: Plasma protein binding in human by chromatographic method; assay type: ADME, cell-free
Plasmodium falciparum [1] = experiment: Antimalarial activity against Plasmodium falciparum 3D7 by [3H]hypoxanthine incorporation assay in presence of human serum; assay type: functional, organism-based
in vivo [2] = conditions: Swiss outbred, mouse, po, 20 mg/kg
[3] = Cmax in Swiss outbred mouse at 20 mg/kg, po; assay type: ADME, organism-based; design: dose 20 mg/kg, route oral; conditions: in vivo
[4] = Lipophilicity, log D of the compound at pH 7.4; assay type: physicochemical; conditions: buffer
[5] = molecular target: T1, Dihydroorotate dehydrogenase (Plasmodium falciparum, UniProt Q54A96)
T1 sequence (Q54A96 whole entry): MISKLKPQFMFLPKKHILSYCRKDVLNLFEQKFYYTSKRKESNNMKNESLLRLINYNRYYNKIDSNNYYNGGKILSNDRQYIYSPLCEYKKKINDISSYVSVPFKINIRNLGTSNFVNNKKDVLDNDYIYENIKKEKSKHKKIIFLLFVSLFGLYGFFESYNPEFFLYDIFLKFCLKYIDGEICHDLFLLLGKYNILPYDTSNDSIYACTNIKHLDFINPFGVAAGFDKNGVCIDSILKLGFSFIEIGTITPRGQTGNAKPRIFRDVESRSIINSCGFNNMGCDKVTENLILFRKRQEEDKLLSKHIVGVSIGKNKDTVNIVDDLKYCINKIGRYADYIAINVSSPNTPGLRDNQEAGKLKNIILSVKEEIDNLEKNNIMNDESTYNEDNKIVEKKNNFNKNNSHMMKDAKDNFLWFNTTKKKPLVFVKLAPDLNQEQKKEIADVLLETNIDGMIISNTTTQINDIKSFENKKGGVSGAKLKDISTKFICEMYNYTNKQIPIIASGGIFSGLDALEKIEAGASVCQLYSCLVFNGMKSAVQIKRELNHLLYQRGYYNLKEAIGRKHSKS
Description: Inhibition of Plasmodium falciparum C-terminal hexa-His tagged DHODH expressed in Escherichia coli by DCIP reduction assay

Liver microsomes = experiment: Intrinsic clearance in human liver microsomes; assay type: ADME, Microsome
Mus musculus [6] = experiment: Time plasma concentration remained above 1 uM in Swiss outbred mouse plasma at 20 mg/kg, po; assay type: ADME, organism-based; design: dose 20 mg/kg, route oral; conditions: in vivo
[7] = AUC (0 to infinity) in Swiss outbred mouse plasma at 20 mg/kg, po; assay type: ADME, organism-based; design: time infinity, dose 20 mg/kg, route oral
[8] = molecular target: Dihydroorotate dehydrogenase (quinone), mitochondrial (Homo sapiens, UniProt Q02127)
Chain of Dihydroorotate dehydrogenase (quinone), mitochondrial (Q02127 whole entry): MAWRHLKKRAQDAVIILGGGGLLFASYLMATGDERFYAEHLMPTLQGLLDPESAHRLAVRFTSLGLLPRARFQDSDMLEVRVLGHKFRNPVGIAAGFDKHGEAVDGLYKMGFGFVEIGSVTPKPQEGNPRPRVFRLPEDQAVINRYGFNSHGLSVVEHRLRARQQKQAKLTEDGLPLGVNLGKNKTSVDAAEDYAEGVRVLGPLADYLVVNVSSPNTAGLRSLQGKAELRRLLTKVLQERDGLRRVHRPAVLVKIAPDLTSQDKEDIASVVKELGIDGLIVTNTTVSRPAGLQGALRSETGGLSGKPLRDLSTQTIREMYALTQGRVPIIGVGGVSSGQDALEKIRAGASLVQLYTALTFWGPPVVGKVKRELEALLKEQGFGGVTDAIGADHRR
Description: Inhibition of human C-terminal hexa-His tagged DHODH expressed in Escherichia coli by DCIP reduction assay

[9] = Aqueous solubility of the compound at pH 6.5; assay type: physicochemical
[10] = Terminal elimination half life in Swiss outbred mouse at 20 mg/kg, po; assay type: ADME, organism-based; design: dose 20 mg/kg, route oral; conditions: in vivo, read-out: beta t1/2 (converted)
Liver = experiment: Intrinsic clearance in mouse liver microsomes; assay type: ADME, Microsome
[11] = Inhibition of Plasmodium berghei C-terminal hexa-His tagged DHODH expressed in Escherichia coli by DCIP reduction assay
Plasmodium falciparum [12] = experiment: Antimalarial activity against Plasmodium falciparum 3D7 0087/N9 infected in human RBC engrafted NOD-SCID IL-2Rgamma-null mouse assessed as reduction in parasitemia administered orally 3 days post infection qd for 4 days measured 24 hrs after final dose by FACS analysis; assay type: functional; conditions: 3D7 0087/N9, po
[13] = Cmax in human RBC engrafted NOD-SCID IL-2Rgamma-null mouse infected with Plasmodium falciparum 3D7 0087/N9 at 10 mg/kg, po; assay type: ADME, organism-based; design: dose 10 mg/kg, route oral; conditions: in vivo
in vivo [14] = conditions: NOD-SCID IL-2Rgamma-null, mouse, po, 10 mg/kg
[15] = Cmax in human RBC engrafted NOD-SCID IL-2Rgamma-null mouse at 10 mg/kg, po; assay type: ADME, organism-based; design: dose 10 mg/kg, route oral; conditions: in vivo
in vivo [16] = conditions: NOD-SCID IL-2Rgamma-null, mouse, po, 10 mg/kg; remark: listed apart in the source
Mus musculus [17] = experiment: AUC (0 to 10 hrs) in human RBC engrafted NOD-SCID IL-2Rgamma-null mouse infected with Plasmodium falciparum 3D7 0087/N9 at 10 mg/kg, po; assay type: ADME, organism-based, Plasma; design: time < 10 hr, dose 10 mg/kg, route oral; conditions: in vivo
Mus musculus [18] = experiment: AUC (0 to 10 hrs) in human RBC engrafted NOD-SCID IL-2Rgamma-null mouse at 10 mg/kg, po; assay type: ADME, organism-based, Plasma; design: time < 10 hr, dose 10 mg/kg, route oral; conditions: in vivo
Mus musculus [19] = experiment: Time plasma concentration remained above 1 uM in Swiss outbred mouse plasma at 10 mg/kg, po; assay type: ADME, organism-based; design: dose 10 mg/kg, route oral; conditions: in vivo
[20] = Terminal elimination half life in Swiss outbred mouse at 10 mg/kg, po; assay type: ADME, organism-based; design: dose 10 mg/kg, route oral; conditions: in vivo, read-out: beta t1/2 (converted)
[21] = Cmax in Swiss outbred mouse at 10 mg/kg, po; assay type: ADME, organism-based; design: dose 10 mg/kg, route oral; conditions: in vivo
[22] = AUC (0 to infinity) in Swiss outbred mouse plasma at 10 mg/kg, po; assay type: ADME, organism-based; design: time infinity, dose 10 mg/kg, route oral
in vivo [23] = conditions: Swiss outbred, mouse, po, 10 mg/kg

SMILES	PPB (Plasma)	EC50 (Plasmodium falciparum [1])	logD [4]	IC50 [5]	Intrinsic clearance (Liver microsomes)	IC50 [8]	solubility [9]	Intrinsic clearance (Liver)	IC50 [11]	also measured
CCOc1nc2nc(C)cc(Nc3ccc(C(F)(F)F)cc3)n2n1	92.4%	58 nM	3.1	56 nM	7 µL/min/mg	> 100000 nM	19 µM (≈ 6.41 µg/mL)	14.4 µL/min/mg	2700 nM	Tmax (in vivo [2]): 1 h; Cmax [3]: 5.8 µM; Time (Mus musculus [6]): 6 h; AUC(0-inf) [7]: 20.7 µM·h; half-life [10]: 1.4 h
CCc1nc2nc(C)cc(Nc3ccc(C(F)(F)F)cc3)n2n1	87.5%	58 nM	3	87 nM	< 5 µL/min/mg	> 100000 nM	39 µM (≈ 12.5 µg/mL)	14.4 µL/min/mg	760 nM	Tmax (in vivo [2]): 1 h; Cmax [3]: 12.6 µM; Time (Mus musculus [6]): 5 h; AUC(0-inf) [7]: 27.1 µM·h; half-life [10]: 8.4 h
CCOc1nc2nc(C)cc(Nc3ccc(S(F)(F)(F)(F)F)cc3)n2n1	97.7%	100 nM	3.4	57 nM	< 5 µL/min/mg	> 100000 nM	4 µM (≈ 1.58 µg/mL)	11.3 µL/min/mg	470 nM	Tmax (in vivo [2]): 1 h; Cmax [3]: 1.1 µM; Time (Mus musculus [6]): 3 h; AUC(0-inf) [7]: 10.1 µM·h; half-life [10]: 2.7 h
Cc1cc(Nc2ccc(C(F)(F)F)cc2)n2nc(C3CC3)nc2n1	92.8%	150 nM	3.3	140 nM	< 5 µL/min/mg	> 100000 nM	38 µM (≈ 12.7 µg/mL)	8.6 µL/min/mg	2600 nM	
CCc1nc2nc(C)cc(Nc3ccc(S(F)(F)(F)(F)F)cc3)n2n1	96.4%	100 nM	3.3		< 5 µL/min/mg	> 100000 nM	34 µM (≈ 12.9 µg/mL)	16.7 µL/min/mg	1400 nM	
C[C@H]1[C@H](OC(=O)CCC(=O)O)O[C@@H]2O[C@@]3(C)CC[C@H]4[C@H](C)CC[C@@H]1[C@@]24OO3 [ARTESUNATE]										ED90 (Plasmodium falciparum [12]): 12.7 mg/kg
CCC(F)(F)c1nc2nc(C)cc(Nc3ccc(S(F)(F)(F)(F)F)cc3)n2n1	97.7%	550 nM	3.9		< 5 µL/min/mg	> 100000 nM	15 µM (≈ 6.44 µg/mL)	6.7 µL/min/mg	4700 nM	
Cc1cc(Nc2ccc(Cl)cc2)n2nc(C(C)C)nc2n1	84.9%	850 nM	3.2	330 nM	14.1 µL/min/mg		83 µM (≈ 25 µg/mL)	157.7 µL/min/mg	2100 nM	
CSc1nc2nc(C)cc(Nc3ccc(S(F)(F)(F)(F)F)cc3)n2n1	97.7%	32 nM	3.5	30 nM	22.4 µL/min/mg		7.8 µM (≈ 3.1 µg/mL)	107.5 µL/min/mg	> 10000 nM	
Cc1cc(Nc2ccc(Cl)cc2)n2nc(C(C)(F)F)nc2n1	87.9%	50 nM	3	38 nM	16 µL/min/mg	> 100000 nM	77 µM (≈ 24.9 µg/mL)	62.8 µL/min/mg	1700 nM	
COCc1nc2nc(C)cc(Nc3ccc(S(F)(F)(F)(F)F)cc3)n2n1	91.7%	2100 nM	2.8	390 nM	5.6 µL/min/mg		63 µM (≈ 24.9 µg/mL)	14.3 µL/min/mg	3300 nM	
CCN(CC)CCCC(C)Nc1ccnc2cc(Cl)ccc12 (stereo unspecified) [CHLOROQUINE]										ED50 (Plasmodium falciparum [12]): 3.2 mg/kg; ED90 (Plasmodium falciparum [12]): 4.9 mg/kg
CCc1nc2nc(C)cc(Nc3ccc(Cl)cc3)n2n1	86.1%	790 nM	2.8	280 nM	12.8 µL/min/mg		170 µM (≈ 48.9 µg/mL)	63.1 µL/min/mg	2300 nM	
Cc1cc(Nc2cc(F)c(C(F)(F)F)c(F)c2)n2ncnc2n1										Cmax [13]: 8.2 µM; Tmax (in vivo [14]): 3.3 h; Cmax [15]: 8.5 µM; Tmax (in vivo [16]): 2 h; AUC (Mus musculus [17]): 3173 µM·min; AUC (Mus musculus [18]): 3848 µM·min; ED50 (Plasmodium falciparum [12]): 19 mg/kg; ED90 (Plasmodium falciparum [12]): 59 mg/kg
Cc1cc(Nc2ccc(S(F)(F)(F)(F)F)cc2)n2nc(C3CC3)nc2n1	97.7%	500 nM	3.5		< 5 µL/min/mg	> 100000 nM	16 µM (≈ 6.26 µg/mL)	12.6 µL/min/mg	2000 nM	
CCC(F)(F)c1nc2nc(C)cc(Nc3ccc(C(F)(F)F)cc3)n2n1	93.2%	45 nM	3.6	19 nM	< 5 µL/min/mg	> 100000 nM	17 µM (≈ 6.31 µg/mL)	6.5 µL/min/mg	2500 nM	Time (Mus musculus [19]): 4 h; half-life [20]: 3.1 h; Cmax [21]: 3.5 µM; AUC(0-inf) [22]: 10.9 µM·h; Tmax (in vivo [23]): 0.5 h
